Experimental findings from ChEMBL document CHEMBL4622916, “Synthesis of tetracyclic oxindoles and evaluation of their α-glucosidase inhibitory and glucose consumption-promoting activity” (Bioorg Med Chem Lett, 2020) are described below.

Usually IC50 stands for the midpoint of a concentration-inhibition curve.

Active and inactive are the calls of the source. The calls are words filed in the database; no cut-off is given here.

Data set [1] is described as follows: Inhibition of alpha-glucosidase (unknown origin). Also on record: species or system Homo sapiens.
The species named for data set [2] is Homo sapiens. The data set is described as follows: Reversible competitive inhibition of alpha-glucosidase (unknown origin) by Lineweaver-Burk plot analysis.
Data set [3] relates to HepG2. Briefly: Increase in glucose consumption in human HepG2 cells at 1 to 5 uM. The data set is classed as functional, cell-based.
In data set [4] the test system is HepG2. Briefly: Cytotoxicity against human HepG2 cells. The data set is classed as cell-based.
Data set [5] is filed under the species Homo sapiens. The data set is described as follows: Potency index, ratio of IC50 of acarbose to IC50 of compound for inhibition of alpha-glucosidase (unknown origin).

Turning to `COC(=O)/C=C/c1ccc2c(c1)C1(C(=O)N2Cc2ccc(OC)cc2)[C@H](C(=O)/C=C/c2ccc(Cl)cc2Cl)[C@@H](c2ccc(Cl)cc2Cl)[C@@H]2CSCN21` (stereo not given in full), in data set [1], the half-inhibitory concentration (IC50) was found to be 4.49 µM.
Same read-out and setting: to `CCN(CC)c1ccc(/C=C/C(=O)[C@@H]2[C@@H](c3ccc(N(CC)CC)cc3)[C@@H]3CSCN3C23C(=O)N(Cc2ccc(OC)cc2)c2ccc(/C=C/C(=O)OC)cc23)cc1` (stereo not given in full) belongs 7.43 µM; to `COC(=O)/C=C/c1ccc2c(c1)C1(C(=O)N2Cc2ccc(OC)cc2)[C@H](C(=O)/C=C/c2ccc(N(C)C)cc2)[C@@H](c2ccc(N(C)C)cc2)[C@@H]2CSCN21` (stereo not given in full), 9.47 µM; to `COC(=O)/C=C/c1ccc2c(c1)C1(C(=O)N2Cc2ccc(OC)cc2)[C@H](C(=O)/C=C/c2ccc(OC)cc2)[C@@H](c2ccc(OC)cc2)[C@@H]2CSCN21` (stereo not given in full), 3.81 µM.
Same read-out and setting: then `COC(=O)/C=C/c1ccc2c(c1)C1(C(=O)N2Cc2ccc(OC)cc2)[C@H](C(=O)/C=C/c2ccc(-c3ccccc3)cc2)[C@@H](c2ccc(-c3ccccc3)cc2)[C@@H]2CSCN21` (stereo not given in full), with 4.14 µM; and `COc1ccc(/C=C/C(=O)[C@@H]2[C@@H](c3ccc(OC)c(OC)c3)[C@@H]3CSCN3C23C(=O)Nc2ccccc23)cc1OC` (stereo not given in full), with over 50 µM.
Same read-out and setting: to `COc1ccc(CN2C(=O)C3(c4cc(Br)ccc42)[C@H](C(=O)/C=C/c2ccccc2Br)[C@@H](c2ccccc2Br)[C@@H]2CSCN23)cc1` (stereo not given in full) belongs 4.09 µM; to `COc1ccc(CN2C(=O)C3(c4cc(Br)ccc42)[C@H](C(=O)/C=C/c2ccc(Cl)cc2Cl)[C@@H](c2ccc(Cl)cc2Cl)[C@@H]2CSCN23)cc1` (stereo not given in full), 14.1 µM.
Molecule `O=C(/C=C/c1ccccc1Cl)[C@@H]1[C@@H](c2ccccc2Cl)[C@@H]2CSCN2C12C(=O)Nc1ccccc12` (stereo not given in full) had an IC50 in data set [1] of 9.8 µM. The IC50 values of the last two molecules are within 1.5-fold of each other.
Still for that read-out and setting: then `Cc1ccc(/C=C/C(=O)[C@@H]2[C@@H](c3ccc(C)cc3)[C@@H]3CSCN3C23C(=O)Nc2ccccc23)cc1` (stereo not given in full), with 18.9 µM; and `COC(=O)/C=C/c1ccc2c(c1)C1(C(=O)N2Cc2ccc(OC)cc2)[C@H](C(=O)/C=C/c2ccccc2Br)[C@@H](c2ccccc2Br)[C@@H]2CSCN21` (stereo not given in full), with 4.68 µM.
As for `COC(=O)/C=C/c1ccc2c(c1)C1(C(=O)N2Cc2ccc(OC)cc2)[C@H](C(=O)/C=C/c2ccc(Br)cc2)[C@@H](c2ccc(Br)cc2)[C@@H]2CSCN21` (stereo not given in full), the IC50 in data set [1] amounted to 8.44 µM.
The same measure, in the same setting: to `C[C@H]1O[C@H](O[C@H]2[C@H](O)[C@@H](O)[C@@H](O[C@H]3[C@H](O)[C@@H](O)C(O)O[C@@H]3CO)O[C@@H]2CO)[C@H](O)[C@@H](O)[C@@H]1N[C@H]1C=C(CO)[C@@H](O)[C@H](O)[C@H]1O` (stereo not given in full) [ACARBOSE] belongs 50.3 µM.
`COc1ccc(CN2C(=O)C3(c4cc(Br)ccc42)[C@H](C(=O)/C=C/c2ccc(N(C)C)cc2)[C@@H](c2ccc(N(C)C)cc2)[C@@H]2CSCN23)cc1` (stereo not given in full) came in with an IC50 in data set [1] of 3.64 µM. Also, the inhibition entry in the data set listed under Homo sapiens [2] is “Active”. Besides, the outcome in the data set with HepG2 [3] was Active. For the same molecule, the Activity result with HepG2 [4] is recorded as “Non-Toxic”. In addition, the Ratio IC50 in the data set listed under Homo sapiens [5] was 14.
In the case of `COC(=O)/C=C/c1ccc2c(c1)C1(C(=O)N2Cc2ccc(OC)cc2)[C@H](C(=O)/C=C/c2ccc(Cl)cc2)[C@@H](c2ccc(Cl)cc2)[C@@H]2CSCN21` (stereo not given in full), in data set [1], the IC50 was determined as 4.73 µM.
Same read-out and setting: then `O=C(/C=C/c1ccc(Cl)cc1)[C@@H]1[C@@H](c2ccc(Cl)cc2)[C@@H]2CSCN2C12C(=O)Nc1ccccc12` (stereo not given in full), with 7.49 µM.
On the same count and under the same terms, then `COC(=O)/C=C/c1ccc2c(c1)C1(C(=O)N2Cc2ccc(OC)cc2)[C@H](C(=O)/C=C/c2ccc(F)cc2)[C@@H](c2ccc(F)cc2)[C@@H]2CSCN21` (stereo not given in full), with 4.47 µM; and `O=C(/C=C/c1ccc(Cl)cc1Cl)[C@@H]1[C@@H](c2ccc(Cl)cc2Cl)[C@@H]2CSCN2C12C(=O)Nc1ccccc12` (stereo not given in full), with 7.4 µM.
The same measure, in the same setting: then `COc1ccc(CN2C(=O)C3(c4cc(Br)ccc42)[C@H](C(=O)/C=C/c2ccc(Cl)cc2)[C@@H](c2ccc(Cl)cc2)[C@@H]2CSCN23)cc1` (stereo not given in full), with 3.9 µM; and `COc1ccc(CN2C(=O)C(=O)c3cc(Br)ccc32)cc1`, with 39.9 µM.
In data set [1], `O=C(/C=C/c1ccc(Cl)cc1)[C@@H]1[C@@H](c2ccc(Cl)cc2)[C@@H]2CSCN2C12C(=O)Nc1ccc(Br)cc12` (stereo not given in full) registered an IC50 of 4.9 µM.
On the same count and under the same terms, to `O=C(/C=C/c1ccccc1)[C@@H]1[C@@H](c2ccccc2)[C@@H]2CSCN2C12C(=O)Nc1ccccc12` (stereo not given in full) belongs 16.1 µM.
The same measure, in the same setting: then `CN(C)c1ccc(/C=C/C(=O)[C@@H]2[C@@H](c3ccc(N(C)C)cc3)[C@@H]3CSCN3C23C(=O)Nc2ccccc23)cc1` (stereo not given in full), with 4.81 µM.
The same measure, in the same setting: then `COC(=O)/C=C/c1ccc2c(c1)C1(C(=O)N2Cc2ccc(OC)cc2)[C@H](C(=O)/C=C/c2ccccc2)[C@@H](c2ccccc2)[C@@H]2CSCN21` (stereo not given in full), with 8.33 µM; and `O=C(/C=C/c1ccco1)[C@@H]1[C@@H](c2ccco2)[C@@H]2CSCN2C12C(=O)Nc1ccccc12` (stereo not given in full), with over 50 µM; and `O=C(/C=C/c1ccccc1Br)[C@@H]1[C@@H](c2ccccc2Br)[C@@H]2CSCN2C12C(=O)Nc1ccccc12` (stereo not given in full), with 4.47 µM.
